# Tested on: Respiratory syncytial virus recombinant with luciferase (RSV-Luc5)
# Test: HEp-2 RSV-Luc5 384-well assay (EC50 RSVFLUC Hep2-384 v2), Example V
# Type: cell-based
# Settings: human respiratory syncytial virus, HEp-2, 72 h, read-out: EC50 RSV FLuc Hep-2 384 V2 (per Ex. V)
# Source text: Example V: HEp-2 RSV-Luc5 384-Well Assay (EC50 RSVFLUC Hep2-384 v2)
# HEp-2 cell line was purchased from ATCC (Manassas, VA Cat #CCL-23) and maintained in Dulbecco's […] (DMEM) (Corning, New York, NY, Cat #15-018CM) supplemented with 10% fetal bovine serum (FBS) (Hyclone, Logan, UT, Cat #SH30071-03) and 1× Penicillin-Streptomycin-L-Glutamine (Corning, New York, NY, Cat #30-009-C1). Cells were passaged 2 times per week to maintain sub-confluent densities and were used for experiments at passage 5-20. Respiratory syncytial virus recombinant with luciferase (RSV-Luc5) (≥1×107 TCID50/ml) was purchased from Microbiologics (Saint Cloud, MN). Viral replication was determined in HEp-2 cells in the following manner.
# Compounds are prepared in 100% DMSO in 384-well polypropylene plates (Greiner, Monroe, NC, Cat #784201) with 8 compounds per plate in grouped replicates of 4 at 10 serially diluted concentrations (1:3). The serially diluted compounds were transferred to low dead volume Echo plates (Labcyte, Sunnyvale, CA, Cat #LP-0200).
# The test compounds were spotted to 384-well assay plates (Greiner, Monroe, NC, Cat #781091) at 200 nL per well. HEp-2 cells were harvested and suspended in DMEM (supplemented with 10% FBS and 1× Penicillin-Streptomycin-L-Glutamine) and seeded to the pre-spotted assay plates at 4,000 cells per well in 30 μL. RSV-Luc5 viruses were diluted in DMEM (supplemented with 10% FBS and 1× Penicillin-Streptomycin-L-(Glutamine) at 200,000 Infectious Units (IU) per mL and 10 μL per well was added to the assay plates containing cells and compounds, for an MOI=0.5. The assay plates were incubated for 3 days at 37° C. and 5% CO2. At the end of incubation, One-Glo reagent (Promega, Madison, WI, Cat #E6120) was prepared. The assay plates and One-Glo reagent were equilibrated to room temperature for at least 15 minutes. 40 μL per well of One-Glo reagent was added and the plates were incubated at room temp for 15 minutes before reading the luminescence signal on an EnVision multimode plate reader (Perkin Elmer, Waltham, MA). Remdesivir was used as positive control and DMSO was used as negative control. Values were normalized to the positive and negative controls (as 0% and 100% replication, respectively) and data was fitted using non-linear regression analysis by Gilead's dose response tool. The EC50 value for each compound was then determined as the concentration reducing the viral replication by 50%.
row,SMILES,EC50
1,"CCC(CC)COC(=O)OC[C@@]1(C#N)O[C@@H](c2ccc3c(N)ncnn23)[C@H](O)[C@@H]1O [Compound 31, ((2R,3S,4R,5S)-5-(4-aminopyrrolo[2,1-f][1,2,4]triazin-7-yl)-2-cyano-3,4-dihydroxytetrahydrofuran-2-yl)methyl (2-ethylbutyl) carbonate]",20.3 µM
2,"CC1(C)CC(OC(=O)OC[C@@]2(C#N)O[C@@H](c3ccc4c(N)ncnn34)[C@H](O)[C@@H]2O)C1 [Compound 37, ((2R,3S,4R,5S)-5-(4-aminopyrrolo[2,1-f][1,2,4]triazin-7-yl)-2-cyano-3,4-dihydroxytetrahydrofuran-2-yl)methyl (3,3-dimethylcyclobutyl) carbonate]",21.3 µM
3,"COC[C@@H](C)OC(=O)OC[C@@]1(C#N)O[C@@H](c2ccc3c(N)ncnn23)[C@H](O)[C@@H]1O [Compound 38, ((2R,3S,4R,5S)-5-(4-aminopyrrolo[2,1-f][1,2,4]triazin-7-yl)-2-cyano-3,4-dihydroxytetrahydrofuran-2-yl)methyl ((R)-1-methoxypropan-2-yl) carbonate]",50 µM
4,"N#C[C@]1(COC(=O)OC2CCCCC2)O[C@@H](c2ccc3c(N)ncnn23)[C@H](O)[C@@H]1O [Compound 21, ((2R,3S,4R,5S)-5-(4-aminopyrrolo[2,1-f][1,2,4]triazin-7-yl)-2-cyano-3,4-dihydroxytetrahydrofuran-2-yl)methyl cyclohexyl carbonate]",21.9 µM
5,"CC(C)COC(=O)Nc1ncnn2c([C@@H]3O[C@](C#N)(CO)[C@@H](O)[C@H]3O)ccc12 [Compound 16, Isobutyl (7-((2S,3R,4S,5R)-5-cyano-3,4-dihydroxy-5-(hydroxymethyl)tetrahydrofuran-2-yl)pyrrolo[2,1-f][1,2,4]triazin-4-yl)carbamate]",50 µM
6,"N#C[C@]1(COC(=O)OC2CCC2)O[C@@H](c2ccc3c(N)ncnn23)[C@H](O)[C@@H]1O [Compound 17, ((2R,3S,4R,5S)-5-(4-aminopyrrolo[2,1-f][1,2,4]triazin-7-yl)-2-cyano-3,4-dihydroxytetrahydrofuran-2-yl)methyl cyclobutyl carbonate]",24.9 µM
7,"CC(C)CCOC(=O)OC[C@@]1(C#N)O[C@@H](c2ccc3c(N)ncnn23)[C@H](O)[C@@H]1O [Compound 7, ((2R,3S,4R,5S)-5-(4-aminopyrrolo[2,1-f][1,2,4]triazin-7-yl)-2-cyano-3,4-dihydroxytetrahydrofuran-2-yl)methyl isopentyl carbonate]",16.8 µM
8,"N#C[C@]1(COC(=O)OCC2CCCC2)O[C@@H](c2ccc3c(N)ncnn23)[C@H](O)[C@@H]1O [Compound 30, ((2R,3S,4R,5S)-5-(4-aminopyrrolo[2,1-f][1,2,4]triazin-7-yl)-2-cyano-3,4-dihydroxytetrahydrofuran-2-yl)methyl (cyclopentylmethyl) carbonate]",23 µM
9,"CCCCCCOC(=O)OC[C@@]1(C#N)O[C@@H](c2ccc3c(N)ncnn23)[C@H](O)[C@@H]1O [Compound 19, ((2R,3S,4R,5S)-5-(4-aminopyrrolo[2,1-f][1,2,4]triazin-7-yl)-2-cyano-3,4-dihydroxytetrahydrofuran-2-yl)methyl hexyl carbonate]",13.6 µM
10,"CCOC(=O)OC[C@@]1(C#N)O[C@@H](c2ccc3c(N)ncnn23)[C@H](O)[C@@H]1O [Compound 22, ((2R,3S,4R,5S)-5-(4-aminopyrrolo[2,1-f][1,2,4]triazin-7-yl)-2-cyano-3,4-dihydroxytetrahydrofuran-2-yl)methyl ethyl carbonate]",26.3 µM
11,"N#C[C@]1(COC(=O)OC2CC2)O[C@@H](c2ccc3c(N)ncnn23)[C@H](O)[C@@H]1O [Compound 23, ((2R,3S,4R,5S)-5-(4-aminopyrrolo[2,1-f][1,2,4]triazin-7-yl)-2-cyano-3,4-dihydroxytetrahydrofuran-2-yl)methyl cyclopropyl carbonate]",15.4 µM
12,"N#C[C@]1(COC(=O)O[C@@H]2C[C@@H]3C[C@@H]3C2)O[C@@H](c2ccc3c(N)ncnn23)[C@H](O)[C@@H]1O [Compound 39, ((2R,3S,4R,5S)-5-(4-aminopyrrolo[2,1-f][1,2,4]triazin-7-yl)-2-cyano-3,4-dihydroxytetrahydrofuran-2-yl)methyl ((1R,3r,5S)-bicyclo[3.1.0]hexan-3-yl) carbonate]",28.1 µM
13,"C[C@H]1CC[C@H](OC(=O)OC[C@@]2(C#N)O[C@@H](c3ccc4c(N)ncnn34)[C@H](O)[C@@H]2O)CC1 [Compound 40, ((2R,3S,4R,5S)-5-(4-aminopyrrolo[2,1-f][1,2,4]triazin-7-yl)-2-cyano-3,4-dihydroxytetrahydrofuran-2-yl)methyl ((1r,4R)-4-methylcyclohexyl) carbonate]",26.7 µM
14,"CCCOCCOC(=O)OC[C@@]1(C#N)O[C@@H](c2ccc3c(N)ncnn23)[C@H](O)[C@@H]1O [Compound 34, ((2R,3S,4R,5S)-5-(4-aminopyrrolo[2,1-f][1,2,4]triazin-7-yl)-2-cyano-3,4-dihydroxytetrahydrofuran-2-yl)methyl (2-propoxyethyl) carbonate]",17.6 µM
15,"CC[C@H](C)COC(=O)OC[C@@]1(C#N)O[C@@H](c2ccc3c(N)ncnn23)[C@H](O)[C@@H]1O [Compound 28, ((2R,3S,4R,5S)-5-(4-aminopyrrolo[2,1-f][1,2,4]triazin-7-yl)-2-cyano-3,4-dihydroxytetrahydrofuran-2-yl)methyl ((S)-2-methylbutyl) carbonate]",18.2 µM
16,"N#C[C@]1(COC(=O)OCc2ccccc2)O[C@@H](c2ccc3c(N)ncnn23)[C@H](O)[C@@H]1O [Compound 29, ((2R,3S,4R,5S)-5-(4-aminopyrrolo[2,1-f][1,2,4]triazin-7-yl)-2-cyano-3,4-dihydroxytetrahydrofuran-2-yl)methyl benzyl carbonate]",19.6 µM
17,"N#C[C@]1(COC(=O)OC2CC3(CCC3)C2)O[C@@H](c2ccc3c(N)ncnn23)[C@H](O)[C@@H]1O [Compound 36, ((2R,3S,4R,5S)-5-(4-aminopyrrolo[2,1-f][1,2,4]triazin-7-yl)-2-cyano-3,4-dihydroxytetrahydrofuran-2-yl)methyl spiro[3.3]heptan-2-yl carbonate]",14.3 µM
18,"N#C[C@]1(COC(=O)OCCc2ccccc2)O[C@@H](c2ccc3c(N)ncnn23)[C@H](O)[C@@H]1O [Compound 5, ((2R,3S,4R,5S)-5-(4-aminopyrrolo[2,1-f][1,2,4]triazin-7-yl)-2-cyano-3,4-dihydroxytetrahydrofuran-2-yl)methyl phenethyl carbonate]",17.9 µM
19,"N#C[C@]1(COC(=O)OCC2CC2)O[C@@H](c2ccc3c(N)ncnn23)[C@H](O)[C@@H]1O [Compound 32, ((2R,3S,4R,5S)-5-(4-aminopyrrolo[2,1-f][1,2,4]triazin-7-yl)-2-cyano-3,4-dihydroxytetrahydrofuran-2-yl)methyl (cyclopropylmethyl) carbonate]",20.6 µM
20,"CCCCCOC(=O)OC[C@@]1(C#N)O[C@@H](c2ccc3c(N)ncnn23)[C@H](O)[C@@H]1O [Compound 20, ((2R,3S,4R,5S)-5-(4-aminopyrrolo[2,1-f][1,2,4]triazin-7-yl)-2-cyano-3,4-dihydroxytetrahydrofuran-2-yl)methyl pentyl carbonate]",13.7 µM
21,"CC(C)(C)CCOC(=O)OC[C@@]1(C#N)O[C@@H](c2ccc3c(N)ncnn23)[C@H](O)[C@@H]1O [Compound 35, ((2R,3S,4R,5S)-5-(4-aminopyrrolo[2,1-f][1,2,4]triazin-7-yl)-2-cyano-3,4-dihydroxytetrahydrofuran-2-yl)methyl (3,3-dimethylbutyl) carbonate]",18.9 µM

# From patent publication US20230382940A1, “ANTIVIRAL COMPOUNDS AND METHODS OF MAKING AND USING THE SAME” (Gilead Sciences, Inc., priority 2022, published 2023)
